Reference: patent US4839466A, “Insulin activity messengers” (The Rockefeller University, priority 1987, dated 1989)

How the values were obtained:
Assay type in all cases: biochemical, rat
cAMP phosphodiesterase [1] = assay: Generation of PDE messenger from liver membranes by insulin or PI-PLC; extracts assayed on cAMP phosphodiesterase
Experimental: These were generated from bovine liver particulate fractions by a modification of previously described methods. Particulate fraction was prepared from 100 g of bovine liver, and suspended in […] ammonium bicarbonate, pH 7.4. (Buffer A) at a final concentration of 2-4 mg protein/ml. This solution was incubated with […] for 10 min at 37° C., acidified to pH 4.0 with formic acid and sedimented at 45,000 g for 20 min. An equal volume of chloroform/methanol (2:1) was added to the supernatant, and the upper phase was aspirated and methanol was evaporated.
In the tests the results of which are tabulated above, liver membranes were treated as indicated for 10 min at 37° C., centrifuged and supernatants were extracted and purified up to and including the Dowex 50WX-4 step as described earlier herein under "Experimental Frocedures".
Partially purified extracts were assayed for ability to modulate cAMP phosphodiesterase. Basal activity was 56.2 pmoles/mg protein^-1 -min^-1.

cAMP phosphodiesterase [2] = assay: Generation of an enzyme modulator from liver plasma membranes, cAMP phosphodiesterase readout
Experimental: (§1) Purification of the Enzyme Modulator. Bovine liver particulate fraction was prepared as described previously [Saltiel A. R., (1984) "Preparation and Characterization of Putative Insulin Mediators from Liver", METHODS IN DIABETES […], eds. J. Larner, S. Pohl, I:73]. Solutions were incubated in 5 mM ammonium bicarbonate, pH 7.4 with 10 nM insulin or 1 ug/ml PI-PLC as described in the figure legends. Following incubation, solutions were acidified to pH 4.0 and centrifuged at 35,000 x g for 20 minutes. Resulting supernatants were extracted with chloroform/methanol (2:1). The upper aqueous phase was aspirated and methanol was evaporated. Enzyme modulating activities were purified as described in Publication No. 6 listed earlier herein. Briefly, the extract was chromatographed on DEAE-Cellulose and eluted with 0.25M triethylamine (TEA)-formate, pH 3.75. This was followed by chromatography on C-18 reversed phase resin, in the same buffer, followed by Dowex 50W X-4 in 50 mM TEA-formate, pH 3.0. The resulting eluate was lyophilized, resuspended in 50 mM TEA-formate, pH 4.5 and sequentially chromatographed on QAE-Sephadex, SAX HPLC and a P-2 gel filtration column. Only the cyclic inositol phosphate derivative residing in Peak I was examined.
(§2) Enzyme Assays. The low Km cAMP PDE was assayed in a rat adipocyte particulate fraction as previously described [Saltiel, A. R., Steigerwalt,R. W., (1986) "Purification of Putative Insulin-Sensitive cAMP Phosphodiesterase or its Catalytic Domain From Rat Adipocytes", DIABETES, 35:698] and as later modified in Publication No. 6. Activity was linear throughout 20 min. and proportional to protein concentration. Only the low Km species of the enzyme was present in this fraction. PDH activity was assayed in liver mitoplasts after preincubation with ATP as previously described [Saltiel et al., (1982) PROC. NATL. ACAD. SCI. U.S.A., 79:3513.]. Adenylate cyclase activity was also assayed in purified adipocyte plasma membranes. For all enzyme assays, variability was less than 5%.
(§3) Liver membranes were treated with or without 10 nM insulin or 1 ug/ml PI-PLC for 10 min. at 37° C. Following cetrifugation, the supernatants were extracted and purified up to and including the SAX HPLC step. Purified extracts were added to enzyme assays at a final dilution of 1:10. Enzyme activities were assayed with no additions or after addition of purified extracts from control, insulin or PIPPLC treated membrane. Percent of basal activity is expressed in parentheses. ^1 expressed as pmoles/mg protein-min. ^2 expressed as nmoles/mg protein-min.

Pyruvate Dehydrogenase = assay: Generation of an enzyme modulator from liver plasma membranes, pyruvate dehydrogenase readout
Experimental: as §1, §2, §3

Adenylate Cyclase = assay: Generation of an enzyme modulator from liver plasma membranes, adenylate cyclase readout
Experimental: as §1, §2, §3

[3] = membranes exposed to 10 nM insulin 10 min.

In the case of Insulin: monocomponent bovine insulin, the “stimulation/increase of production of PDE modulating activity from membranes” value (cAMP phosphodiesterase [1]; after partial purification, PI-PLC 1.0 ug/ml) is reported as 4 fold, the “PDE Activity” value (cAMP phosphodiesterase [1]; extract of liver membranes treated 10 min at 37° C. (1.0 nM Insulin, PI-PLC), purified up to Dowex 50WX-4, basal 56.2, untreated membranes 78.5) is reported as 138.0 pmol mg protein^-1 min^-1 and the “cAMP Phosphodiesterase activity” value (cAMP phosphodiesterase [2]; extract of liver membranes treated with 10 nM insulin or 1 ug/ml PI-PLC 10 min. 37° C., purified to SAX HPLC, dilution 1:10, no addition 61.7±4.2, control membranes 78.5±5.6) is reported as 146±3 pmoles/mg protein-min. For the same substance, the “stimulation of PDE by the substance generated” value (cAMP phosphodiesterase [2]; [3]) was 2-3 fold, the “Pyruvate Dehydrogenase activity” value (Pyruvate Dehydrogenase; extract as E41, no addition 1.77±0.07, control membranes 2.45±0.20) was 4.80±0.38 nmoles/mg protein-min and the “stimulation of PDH by the substance generated” value (Pyruvate Dehydrogenase; [3]) was 2-3 fold. The “Adenylate Cyclase activity” value (Adenylate Cyclase; extract as E41, no addition 272±14, control membranes 210±4) was 72.0±3.7 pmoles/mg protein-min and the “inhibition of adenylate cyclase by the substance generated” value (Adenylate Cyclase; [3]) was 75%.
